Experimental findings from patent publication US8969542B2, “HPV polyepitope constructs and uses thereof” (priority 2007, dated 2015) are described below.

Where no end group is shown, it is not given here.

One experiment concerns the target HLA A2902 (Homo sapiens, UniProt P04439, A270S/D101N/D185E/E176V/E277Q/E87Q/F33T/G231S/H175R/I121M/I218V/I322F/K168Q/L300P/L318F/M331R/P208A/P217A/Q86L/T323A/T345S/V100A/V358M). The experiment is described as follows: HLA class I competition binding assay using soluble HLA.
For the next experiment, the target named is HLA A2601 (Homo sapiens, UniProt P04439, A114D/A173T/A270S/D101N/D185E/E277Q/E87N/F33Y/G231S/I121R/I218V/K168Q/L180W/L300P/L318F/P208A/P217A/Q86R/Q94H/R138Q/S129P/T187R/T323A/T345S/V100A/V358M). Described as above.
Another experiment has as its target HLA A0101 (Homo sapiens, UniProt P04439, A114D/A174V/A182V/D101N/D185E/E176A/E190D/L180R/Q94H/R68K/S129P/T187R/V100A/V91M/W191G). Described as above.
The target in another experiment is HLA A3002 (Homo sapiens, UniProt P04439, D101N/D140H/D185E/E176R/F33S/G80R/H175R/K168Q/Q94H/R138E/R41S/V100E). The description is as above.
Another experiment addresses HLA A0201 (Homo sapiens, UniProt P04439, D140Y/D185E/D98H/E176V/E277Q/G131W/G231S/I119V/I121R/I166T/I218V/L300P/L318F/N151K/N90K/P208A/P217A/Q86G/Q94H/R138H/R169H/T345S). The experiment is described as above.
For the next experiment, the target named is HLA A6802 (Homo sapiens, UniProt P04439, A269V/D140Y/D185E/E176V/E277Q/E87N/F33Y/G231S/I121R/I166T/I218V/L180W/L300P/L318F/N151K/P208A/P217A/Q86R/R138H/R169H/S129P/T345S/V36M). The description is as above.
In a further experiment the target is HLA A0203 (Homo sapiens, UniProt P04439, A173T/D140Y/D185E/D98H/E277Q/G131W/G231S/I119V/I121R/I166T/I218V/L180W/L300P/L318F/N151K/N90K/P208A/P217A/Q86G/Q94H/R138H/R169H/T345S). The description is as above.
The target of another experiment is DRB1*0901 (Homo sapiens, UniProt P01903+P01911, A100R/A103E/D57H/D86V/F55Y/F60I/F76Y/I96F/K127E/L162R/M171V/P40D/Q125H/Q99R/R33Q/R42F/S133A/S66N/T210M/V115G/W38K/Y107V/Y59G/Y89S). The experiment in a line: biochemical.
The next experiment concerns the target DRB1*0701 (DR7) (Homo sapiens, UniProt P01903+P01911, A100R/A102G/A103Q/D57E/D86V/E43K/F76Y/K127E/L162R/M171V/P40G/Q125H/Q99D/R33Q/R42Y/R54Q/S133A/S66F/T210M/V115G/Y107V/Y59L/Y89S). The experiment in a line: biochemical.
Another experiment deals with DRB1*1101 (DR5) (Homo sapiens, UniProt P01903+P01911, A100R/A169T/A87E/I96F/K41T/L162R/M171V/P40S/Q125H/Q178H/Q39Y/Q99D/R42S/S66Y/T262R/V115G/W38E). The experiment in a line: biochemical.
A further experiment addresses DRB1*0802 (DR8w2) (Homo sapiens, UniProt P01903+P01911, A100R/A103L/A169T/F76Y/H45Y/I96F/K41T/L162R/M171V/P40S/Q125H/Q178H/Q39Y/Q99D/R218S/R42G/S66Y/V115G/W38E). The experiment is described as follows: biochemical.
The target of the next experiment is DRB5*0101 (DR2w2beta-2) (Homo sapiens, UniProt P01903+Q30154). The experiment is described as follows: biochemical.
The target of another experiment is HLA A0206 (Homo sapiens, UniProt P04439, D140Y/D185E/D98H/E176V/E277Q/F33Y/G131W/G231S/I119V/I121R/I166T/I218V/L300P/L318F/N151K/N90K/P208A/P217A/Q86G/Q94H/R138H/R169H/T345S). The experiment is described as follows: HLA class I competition binding assay using soluble HLA.
A further experiment deals with HLA A0202 (Homo sapiens, UniProt P04439, D140Y/D185E/D98H/E176V/E277Q/G131W/G231S/I119L/I121R/I166T/I218V/L180W/L300P/L318F/N151K/N90K/P208A/P217A/Q67R/Q86G/Q94H/R138H/R169H/T345S). Described as above.

For the molecule `C[C@@H](O)[C@H](NC(=O)CN)C(=O)NCC(=O)N[C@@H](CS)C(=O)N[C@@H](CC(N)=O)C(=O)NCC(=O)N[C@@H](Cc1c[nH]c2ccccc12)C(=O)N[C@@H](Cc1ccccc1)C(=O)N[C@@H](Cc1ccc(O)cc1)C(=O)O` [compound 23], the IC50 at HLA A2902 was 0.116 µM; at HLA A2601, 3.08 µM; on HLA A0101, 0.136 µM; on HLA A3002 it was 0.0091 µM.

As for `CC[C@H](C)[C@H](NC(=O)[C@H](CC(=O)O)NC(=O)[C@H](CCC(N)=O)NC(=O)[C@H](CC(C)C)NC(=O)[C@@H](N)CO)C(=O)N[C@@H](CCC(=O)O)C(=O)N[C@H](C(=O)N[C@H](C(=O)N[C@@H](CS)C(=O)N[C@H](C(=O)O)C(C)C)[C@@H](C)O)[C@@H](C)CC` [compound 30], the results for the IC50 at HLA A0201, at HLA A6802 and at HLA A0203 were 0.153 µM, above 20 µM and 0.038 µM, respectively.

Consider `CC[C@H](C)[C@H](NC(=O)CNC(=O)[C@@H](NC(=O)[C@H](CCCCN)NC(=O)[C@H](Cc1ccc(O)cc1)NC(=O)[C@H](Cc1c[nH]c2ccccc12)NC(=O)[C@H](Cc1ccc(O)cc1)NC(=O)[C@@H](N)CC(C)C)[C@@H](C)O)C(=O)N[C@@H](CO)C(=O)N[C@@H](CC(N)=O)C(=O)N[C@H](C(=O)N[C@@H](CO)C(=O)N[C@@H](CCC(=O)O)C(=O)N[C@H](C(=O)N[C@@H](Cc1ccc(O)cc1)C(=O)O)C(C)C)[C@@H](C)CC` [compound 89], for which half-maximal inhibition at DRB1*0901 (IC50) required 0.09 µM.

Regarding `CC[C@H](C)[C@H](NC(=O)[C@H](Cc1c[nH]c2ccccc12)NC(=O)[C@H](CCC(=O)O)NC(=O)[C@@H]1CCCN1)C(=O)N[C@@H](CCC(N)=O)C(=O)N[C@@H](CCCNC(=N)N)C(=O)N[C@@H](CCC(N)=O)C(=O)N[C@H](C(=O)N[C@H](C(=O)N[C@@H](CC(C)C)C(=O)N[C@@H](CCC(N)=O)C(=O)N[C@@H](Cc1c[nH]cn1)C(=O)N[C@@H](CO)C(=O)N[C@@H](Cc1ccccc1)C(=O)N[C@@H](CC(N)=O)C(=O)O)C(C)C)[C@@H](C)O` [compound 90], on DRB1*0701 (DR7), the IC50 was above 20 µM.

Regarding `CC[C@H](C)[C@H](N)C(=O)N[C@@H](CCCNC(=N)N)C(=O)N[C@H](C(=O)N[C@@H](CC(C)C)C(=O)N[C@@H](CCC(=O)O)C(=O)N[C@@H](CC(=O)O)C(=O)N[C@@H](CC(C)C)C(=O)N[C@@H](CC(C)C)C(=O)N[C@@H](CCSC)C(=O)NCC(=O)N[C@H](C(=O)N[C@@H](CC(C)C)C(=O)NCC(=O)N[C@H](C(=O)N[C@H](C(=O)O)C(C)C)[C@@H](C)CC)[C@@H](C)O)[C@@H](C)O` [compound 97], the IC50 at DRB1*1101 (DR5), on DRB1*0802 (DR8w2), against DRB1*0901 and against DRB5*0101 (DR2w2beta-2) was above 20 µM throughout.

At DRB1*1101 (DR5), `CC[C@H](C)[C@H](NC(=O)[C@H](Cc1c[nH]cn1)NC(=O)[C@H](C)NC(=O)[C@H](Cc1ccc(O)cc1)NC(=O)[C@H](CC(C)C)NC(=O)[C@@H](NC(=O)[C@H](Cc1ccccc1)NC(=O)[C@@H]1CCCN1C(=O)[C@H](CCC(N)=O)NC(=O)[C@@H](NC(=O)[C@H](CC(C)C)NC(=O)[C@@H](NC(=O)[C@H](CCCCN)NC(=O)[C@@H](N)Cc1ccccc1)[C@@H](C)O)[C@@H](C)CC)[C@@H](C)CC)C(=O)N[C@@H](CCC(N)=O)C(=O)O` [compound 98] yielded an IC50 of 6.69 µM.

Take `CC(C)C[C@H](NC(=O)[C@H](CCC(N)=O)NC(=O)[C@H](CCC(N)=O)NC(=O)[C@@H](N)Cc1ccccc1)C(=O)N[C@@H](Cc1ccccc1)C(=O)N[C@@H](CC(C)C)C(=O)N[C@@H](CC(N)=O)C(=O)N[C@H](C(=O)N[C@@H](CC(C)C)C(=O)N[C@@H](CO)C(=O)N[C@@H](Cc1ccccc1)C(=O)N[C@H](C(=O)N[C@@H](CS)C(=O)N1CCC[C@H]1C(=O)N[C@@H](Cc1c[nH]c2ccccc12)C(=O)O)C(C)C)[C@@H](C)O` [compound 105]: the IC50 at DRB1*0802 (DR8w2) was 9 µM.

With `CC[C@H](C)[C@H](NC(=O)[C@@H](NC(=O)[C@H](CC(C)C)NC(=O)[C@H](CC(=O)O)NC(=O)[C@@H](NC(=O)[C@H](Cc1ccccc1)NC(=O)[C@H](C)NC(=O)[C@H](Cc1ccccc1)NC(=O)[C@H](CC(=O)O)NC(=O)[C@H](CC(C)C)NC(=O)[C@@H](N)C(C)C)[C@@H](C)O)[C@@H](C)O)C(=O)N[C@H](C(=O)N[C@@H](Cc1ccc(O)cc1)C(=O)N[C@@H](CCCNC(=N)N)C(=O)N[C@@H](CC(=O)O)C(=O)O)C(C)C` [compound 111], the IC50 against DRB5*0101 (DR2w2beta-2) is above 20 µM.

On DRB5*0101 (DR2w2beta-2), `CC[C@H](C)[C@H](NC(=O)[C@H](Cc1c[nH]cn1)NC(=O)[C@H](C)NC(=O)[C@H](Cc1ccc(O)cc1)NC(=O)[C@H](CC(C)C)NC(=O)[C@@H](NC(=O)[C@H](C)NC(=O)[C@@H]1CCCN1C(=O)[C@H](CCCCN)NC(=O)[C@@H](NC(=O)[C@H](CC(C)C)NC(=O)[C@@H](NC(=O)[C@H](CCCCN)NC(=O)[C@@H](N)Cc1ccccc1)[C@@H](C)O)[C@@H](C)CC)[C@@H](C)O)C(=O)N[C@@H](CCC(N)=O)C(=O)O` [compound 115] returned an IC50 of 1 µM.

In turn, `CC(C)C[C@H](NC(=O)[C@H](CCC(N)=O)NC(=O)[C@H](CCC(N)=O)NC(=O)[C@H](CC(C)C)NC(=O)[C@@H](NC(=O)[C@H](CCCNC(=N)N)NC(=O)[C@@H](N)CC(C)C)[C@@H](C)O)C(=O)N[C@@H](Cc1ccccc1)C(=O)N[C@@H](CC(C)C)C(=O)N[C@@H](CO)C(=O)N[C@H](C(=O)N[C@@H](CC(C)C)C(=O)N[C@@H](CO)C(=O)N[C@@H](Cc1ccccc1)C(=O)N[C@H](C(=O)O)C(C)C)[C@@H](C)O` [compound 121] showed an IC50 on DRB1*1101 (DR5) of 1.67 µM.

Turning to FIYIPLFVI [compound 52], the IC50 stood at 0.026 µM at HLA A0201, 0.0081 µM at HLA A0206, 0.157 µM on HLA A6802 and 0.047 µM at HLA A0203.

Take FVYIPLFLI [compound 8]: the IC50 at HLA A0202 was determined as 0.323 µM; at HLA A0201, 0.206 µM; at HLA A6802 it was 0.251 µM; at HLA A0203, 0.063 µM.

As for ISDYRHYCY [compound 5], the IC50 at HLA A0101 was found to be 0.01 µM.

QVDYYGLYY [compound 2]: the results for the IC50 on HLA A2601, on HLA A0101 and on HLA A3002 were 0.251 µM, 0.0027 µM and 0.16 µM, respectively.

As for STDLRDHIDY [compound 3], the IC50 on HLA A2601 came out at 0.758 µM; on HLA A0101, 0.113 µM.

Consider TLHDIILECV [compound 9], for which the IC50 on HLA A0202 was determined as 0.00054 µM; at HLA A0201 it was 0.0036 µM; on HLA A0206, 0.092 µM; at HLA A6802 it was 2.95 µM; at HLA A0203, 0.0019 µM.

As for TVYVFCFLL [compound 29], the IC50 on HLA A0202 turned out to be 0.587 µM; at HLA A0201, 0.175 µM; at HLA A0206 it was 0.026 µM; at HLA A0203 it was 0.769 µM.
